According to article PMC10504751, “Chalcone/1,3,4-Oxadiazole/Benzimidazole hybrids as novel anti-proliferative agents inducing apoptosis and inhibiting EGFR & BRAFV^600E” (BMC Chemistry, 2023):

What was measured:
UACC-62 = experiment: NCI one-dose SRB anti-proliferative screen; format: cell-based; conditions: Homo sapiens; UACC-62, Melanoma; NCI one dose; read-out: Cell growth inhibition %
Experimental: (§1) The twenty-four synthesized compounds were submitted to the National Cancer Institute (NCI), USA. Eighteen hybrids 7a-h, 7k-r, 7u, and 7v were selected by NCI for one-dose assessment of their anti-proliferative activities at 10 µM dose by Sulforhodamine B colorimetric assay. The assessment was performed in 60 cell lines derived from nine tumor subpanels, comprising lung, leukemia, melanoma, colon, renal, CNS, prostate, breast, and ovarian cancer cell lines.
(§2) The methodology of the NCI anti-proliferative screening has been described in details elsewhere (http://www.dtp.nci.nih.gov).

LOX IMVI = experiment: NCI one-dose SRB anti-proliferative screen; format: cell-based; conditions: Homo sapiens, Melanoma, NCI one dose, read-out: Cell growth inhibition %
Experimental: as §1, §2

HT29 = experiment: NCI one-dose SRB anti-proliferative screen; format: cell-based; conditions: Homo sapiens, HT-29; HT29, Colon cancer; NCI one dose; read-out: Cell growth inhibition %
Experimental: as §1, §2

RPMI-8226 = experiment: NCI one-dose SRB anti-proliferative screen; format: cell-based; conditions: Homo sapiens; RPMI-8226, Leukemia; NCI one dose; read-out: Cell growth inhibition %
Experimental: as §1, §2

ACHN = experiment: NCI one-dose SRB anti-proliferative screen; format: cell-based; conditions: Homo sapiens; ACHN, Renal cancer; NCI one dose; read-out: Cell growth inhibition %
Experimental: as §1, §2

SF-539 = experiment: NCI one-dose SRB anti-proliferative screen; format: cell-based; conditions: Homo sapiens; SF-539, CNS Cancer; NCI one dose; read-out: Cell growth inhibition %
Experimental: as §1, §2

UACC-257 = experiment: NCI one-dose SRB anti-proliferative screen; format: cell-based; conditions: Homo sapiens; UACC-257, Melanoma; NCI one dose; read-out: Cell growth inhibition %
Experimental: as §1, §2

OVCAR-5 = experiment: NCI one-dose SRB anti-proliferative screen; format: cell-based; conditions: Homo sapiens; OVCAR-5, Ovarian Cancer; NCI one dose; read-out: Cell growth inhibition %
Experimental: as §1, §2

NCI/ADR-RES = experiment: NCI one-dose SRB anti-proliferative screen; format: cell-based; conditions: Homo sapiens; NCI/ADR-RES, Ovarian Cancer; NCI one dose; read-out: Cell growth inhibition %
Experimental: as §1, §2

HS 578T = experiment: NCI one-dose SRB anti-proliferative screen; format: cell-based; conditions: Homo sapiens; HS 578T, Breast cancer; NCI one dose; read-out: Cell growth inhibition %
Experimental: as §1, §2

SNB-75 = experiment: NCI one-dose SRB anti-proliferative screen; format: cell-based; conditions: Homo sapiens; SNB-75, CNS Cancer; NCI one dose; read-out: Cell growth inhibition %
Experimental: as §1, §2

COLO 205 = experiment: NCI one-dose SRB anti-proliferative screen; format: cell-based; conditions: Homo sapiens; COLO 205, Colon cancer; NCI one dose; read-out: Cell growth inhibition %
Experimental: as §1, §2

KM12 = experiment: NCI one-dose SRB anti-proliferative screen; format: cell-based; conditions: Homo sapiens; KM12, Colon cancer; NCI one dose; read-out: Cell growth inhibition %
Experimental: as §1, §2

PC-3 = experiment: NCI one-dose SRB anti-proliferative screen; format: cell-based; conditions: Homo sapiens; PC-3, Prostate Cancer; NCI one dose; read-out: Cell growth inhibition %
Experimental: as §1, §2

OVCAR-3 = experiment: NCI one-dose SRB anti-proliferative screen; format: cell-based; conditions: Homo sapiens; OVCAR-3, Ovarian Cancer; NCI one dose; read-out: Cell growth inhibition %
Experimental: as §1, §2

SK-MEL-2 = experiment: NCI one-dose SRB anti-proliferative screen; format: cell-based; conditions: Homo sapiens; SK-MEL-2, Melanoma; NCI one dose; read-out: Cell growth inhibition %
Experimental: as §1, §2

NCI-H460 = experiment: NCI one-dose SRB anti-proliferative screen; format: cell-based; conditions: Homo sapiens; NCI-H460, Non-Small Cell Lung Cancer; NCI one dose; read-out: Cell growth inhibition %
Experimental: as §1, §2

SF-268 = experiment: NCI one-dose SRB anti-proliferative screen; format: cell-based; conditions: Homo sapiens; SF-268, CNS Cancer; NCI one dose; read-out: Cell growth inhibition %
Experimental: as §1, §2

SK-MEL-28 = experiment: NCI one-dose SRB anti-proliferative screen; format: cell-based; conditions: Homo sapiens; SK-MEL-28, Melanoma; NCI one dose; read-out: Cell growth inhibition %
Experimental: as §1, §2

SN12C = experiment: NCI one-dose SRB anti-proliferative screen; format: cell-based; conditions: Homo sapiens, SN 12C, Renal cancer, NCI one dose, read-out: Cell growth inhibition %
Experimental: as §1, §2

A549/ATCC = experiment: NCI one-dose SRB anti-proliferative screen; format: cell-based; conditions: Homo sapiens; A549/ATCC, Non-Small Cell Lung Cancer; NCI one dose; read-out: Cell growth inhibition %
Experimental: as §1, §2

HL-60(TB) = experiment: NCI one-dose SRB anti-proliferative screen; format: cell-based; conditions: Homo sapiens; HL-60(TB), Leukemia; NCI one dose; read-out: Cell growth inhibition %
Experimental: as §1, §2

SW-620 = experiment: NCI one-dose SRB anti-proliferative screen; format: cell-based; conditions: Homo sapiens; SW-620, Colon cancer; NCI one dose; read-out: Cell growth inhibition %
Experimental: as §1, §2

HOP-92 = experiment: NCI one-dose SRB anti-proliferative screen; format: cell-based; conditions: Homo sapiens; HOP-92, Non-Small Cell Lung Cancer; NCI one dose; read-out: Cell growth inhibition %
Experimental: as §1, §2

MALME-3M = experiment: NCI one-dose SRB anti-proliferative screen; format: cell-based; conditions: Homo sapiens; MALME-3M, Melanoma; NCI one dose; read-out: Cell growth inhibition %
Experimental: as §1, §2

DU-145 = experiment: NCI one-dose SRB anti-proliferative screen; format: cell-based; conditions: Homo sapiens; DU-145, Prostate Cancer; NCI one dose; read-out: Cell growth inhibition %
Experimental: as §1, §2

HCT-15 = experiment: NCI one-dose SRB anti-proliferative screen; format: cell-based; conditions: Homo sapiens; HCT-15, Colon cancer; NCI one dose; read-out: Cell growth inhibition %
Experimental: as §1, §2

MDA-MB-468 = experiment: NCI one-dose SRB anti-proliferative screen; format: cell-based; conditions: Homo sapiens; MDA-MB-468, Breast cancer; NCI one dose; read-out: Cell growth inhibition %
Experimental: as §1, §2

CCRF-CEM = experiment: NCI one-dose SRB anti-proliferative screen; format: cell-based; conditions: Homo sapiens; CCRF-CEM, Leukemia; NCI one dose; read-out: Cell growth inhibition %
Experimental: as §1, §2

OVCAR-4 = experiment: NCI one-dose SRB anti-proliferative screen; format: cell-based; conditions: Homo sapiens; OVCAR-4, Ovarian Cancer; NCI one dose; read-out: Cell growth inhibition %
Experimental: as §1, §2

| Compound | inhibition at 10 µM (UACC-62) | inhibition at 10 µM (LOX IMVI) | inhibition at 10 µM (HT29) | inhibition at 10 µM (RPMI-8226) | inhibition at 10 µM (ACHN) | inhibition at 10 µM (SF-539) | inhibition at 10 µM (UACC-257) | inhibition at 10 µM (OVCAR-5) | inhibition at 10 µM (NCI/ADR-RES) | inhibition at 10 µM (HS 578T) | inhibition at 10 µM (SNB-75) | inhibition at 10 µM (COLO 205) | inhibition at 10 µM (KM12) | inhibition at 10 µM (PC-3) | inhibition at 10 µM (OVCAR-3) | inhibition at 10 µM (SK-MEL-2) | inhibition at 10 µM (NCI-H460) | inhibition at 10 µM (SF-268) | inhibition at 10 µM (SK-MEL-28) | inhibition at 10 µM (SN12C) | other results |
| --- | --- | --- | --- | --- | --- | --- | --- | --- | --- | --- | --- | --- | --- | --- | --- | --- | --- | --- | --- | --- | --- |
| O=C(CSc1nnc(-c2ccc3[nH]c(-c4ccccc4)nc3c2)o1)Nc1ccc(C(=O)/C=C/c2ccccc2)cc1 [Compound 7a, 2-{5-[2-Phenyl-1 H-benzo[d]imidazol-5-yl]-1,3,4-oxadiazol-2-ylthio}-N-{4-[(E)-3-phenylacryloyl]phenyl}acetamide] | 2.91% | 2.69% | 0% | 5.75% | 0% | 3.15% | 0% | 0% | 0% | 0% | 0% | 0% | 0% | 0% | 0% | 0% | 0% | 0% | 0% | 2.04% | inhibition at 10 µM (A549/ATCC): 0%; inhibition at 10 µM (HL-60(TB)): 0%; inhibition at 10 µM (SW-620): 0%; inhibition at 10 µM (HOP-92): 0%; inhibition at 10 µM (MALME-3M): 5.5%; inhibition at 10 µM (DU-145): 0%; inhibition at 10 µM (HCT-15): 0%; inhibition at 10 µM (MDA-MB-468): 0%; inhibition at 10 µM (CCRF-CEM): 0%; inhibition at 10 µM (OVCAR-4): 0%; melting point: 273 to 275 °C |
| COc1ccc(/C=C/C(=O)c2ccc(NC(=O)CSc3nnc(-c4ccc5[nH]c(-c6ccccc6)nc5c4)o3)cc2)cc1 [Compound 7c, 2-{5-[2-Phenyl-1 H-benzo[d]imidazol-5-yl]-1,3,4-oxadiazol-2-ylthio}-N-{4-[(E)-3-(4-methoxyphenyl)acryloyl]phenyl}acetamide] | 9.5% | 6.46% | 1.01% | 50.9% | 2.58% | 8.76% | 0% | 0% | 0% | 0% | 0% | 0% | 1.55% | 5.12% | 0% | 2.65% | 0% | 0% | 0% | 3.32% | inhibition at 10 µM (A549/ATCC): 0%; inhibition at 10 µM (HL-60(TB)): 5.24%; inhibition at 10 µM (SW-620): 0%; inhibition at 10 µM (HOP-92): 0%; inhibition at 10 µM (MALME-3M): 8.64%; inhibition at 10 µM (DU-145): 0%; inhibition at 10 µM (HCT-15): 3.81%; inhibition at 10 µM (MDA-MB-468): 0%; inhibition at 10 µM (CCRF-CEM): 34.5%; inhibition at 10 µM (OVCAR-4): 0%; melting point: 175 to 177 °C |
